The values that follow are results of earlier work, collected in patent US8192775B2, “Crystallization of polyol compositions, crystalline polyol composition product and use thereof” (Danisco Sweeteners Oy, priority 2002, dated 2012).

The conditions of the series: water at 20° C.

Each structure is given as a SMILES string.

For the molecule `OC[C@@H](O)[C@H](O)[C@@H](O)CO` [Xylitol], the solubility in water is reported as 63 (w/w).

For the molecule `OC[C@@H](O)[C@@H](O[C@H]1O[C@H](CO)[C@@H](O)[C@H](O)[C@H]1O)[C@H](O)[C@@H](O)CO` [Maltitol], the solubility in water is reported as 62 % (w/w).
